Results taken from PMC8037310, “Thrombin-Derived Peptides Potentiate the Activity of Gram-Positive-Specific Antibiotics against Gram-Negative Bacteria” (Molecules, 2021).
“And” between values parts separate entries of the source, which are not always exact repeats. Identical values can stand only once. Like-named read-outs stand apart in the source and are kept apart here. Peptide text beside a SMILES is read from it.

Columns and labels:
E. coli BW25113 [1] = experiment: microbe, parasite or virus in culture; assay type: cell-based, Escherichia coli; settings: for MICpeptide: synergist alone, E. coli BW25113, from checkerboard with vancomycin; for MSCpeptide: synergist concentration in the combination with vancomycin giving the lowest FICi; for MSCpeptide / MSCvanco: E. coli BW25113; for MSCvanco: vancomycin concentration in the combination giving the lowest FICi
Method: (§1) All peptides were screened for antimicrobial activity against E. coli BW25113, E. coli ATCC25922, and E. coli W3110. A select group of the peptides was further tested against E. coli mcr-1, E. coli EQASmcr-1 (EQAS 2016 412016126), E. coli EQASmcr-2 (EQAS 2016 KP37), E. coli EQASmcr-3 (EQAS 2017 2013-SQ352), K. pneumoniae ATCC13883, P. aeruginosa ATCC27853, and A. baumannii ATCC17978. The antimicrobial assay was performed according to CLSI guidelines. Bacteria were plated out directly from their glycerol stocks on blood agar plates, incubated overnight at 37 °C, and then kept in the fridge. The blood agar plates were only used for 2 weeks and then replaced.
(§2) One colony from a blood agar plates was inoculated in Lysogeny Broth (LB) at 37 °C until a 0.5 optical density at 600 nm (OD600) was reached (compared to the sterility control of LB). The bacterial suspension was diluted in fresh LB to 2.0 × 10^6 CFU/mL. The serial dilutions were prepared in polypropylene microtiter plates: a stock of the test compounds was prepared with a 2x final concentration in LB. Moreover, 100 µL of the stock was added to the wells of the top row of which 50 µL was used for the serial dilution. The bottom row of each plate was used as the positive (50 µL of LB) and negative controls (100 µL of LB) (6 wells each). Furthermore, 50 µL of the 2.0 × 10^6 CFU/mL bacterial stock was added to each well except for the negative controls, adding up to a total volume of 100 µL per well. The plates were sealed with a breathable seal and incubated for 20 h at 37 °C and 600 rpm.
(§3) Two 96-well plates were required per compound. A serial dilution of the compound was performed on two plates from row A–G using with LB as medium. Row H was filled with 25 µL medium. On a separate plate a negative control (8 wells, 100 μL medium) was prepared. For all concentrations of antibiotic a specific stock was prepared. 25 µL medium was added to the 0 µg/mL antibiotic columns (plate I, column 1–3). Of each antibiotic stock 25 µL was added to three columns to obtain triplicates for every condition. Both plates contained 50 µL in each well to which 50 µL bacterial stock was added (see the protocol of the MIC assays) and the plates were sealed. After incubation for 20 h at 37 °C while shaking, the breathable seals were removed and the density of the bacterial suspensions measured at 600 nm (OD600) using a Tecan Spark plate reader. The OD600 values were transformed to a 2D gradient with the negative control as minimum and the positive control (wells G1, G2, and G3) as maximum in excel. The FICi was calculated using Equation (1) with a FICi ≤ 0.5 indicating synergy. FICi = (MSCa/MICa) + (MSCb/MICb),(1)
(§4) Calculation of the FICi: MSCa = concentration of the […] in combination with the antibiotic that results in the lowest FICi. MICa = MIC of the antibiotic without synergist (row G). MSCb = concentration of the synergist in combination with the antibiotic that results in the lowest FICi. MICb = MIC of the synergist itself (Column 1–3, plate I).

K. pneumoniae ATCC13883 = experiment: Checkerboard assay with rifampicin; assay type: cell-based, Klebsiella pneumoniae; settings: K. pneumoniae ATCC13883; for MICpeptide: peptide alone; for MSCpeptide: peptide concentration in the combination with rifampicin giving the lowest FICi; for MSCrif: rifampicin concentration in the combination giving the lowest FICi
Method: as §1, §2, §3, §4

[2] = test system: defibrinated sheep blood (red blood cells); experiment: Hemolysis assay; assay type: cell-based; settings: 200 µg/mL compound, 20 h incubation at 37 °C with defibrinated sheep blood, PBS 0.002% Tween20, absorbance 415 nm, relative to 0.1% Triton X-100; n=3 technical replicates
Procedure, shortened: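 % hemolysis is supernatant absorbance at 415 nm, minus the buffer-only background, relative to 0.1% Triton X-100 lysis. Compound dilutions (200–1.56 µg/mL before adding cells) were incubated with an equal volume of red cells for 20 h at 37 °C and 500 rpm. Cells were washed and normalized in PBS/0.002% Tween20 to about 2.5 A415 at full lysis.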

E. coli BW25113 [3] = experiment: Checkerboard assay with erythromycin; assay type: cell-based, Escherichia coli; settings: for MSCery: erythromycin concentration in the combination with the synergist giving the lowest FICi, E. coli BW25113; for MIC of the peptide (MICpep): synergist alone, from checkerboard with erythromycin; for MIC of the peptide (MICpep) / MSCpeptide, minimum synergistic concentration: E. coli BW25113, LB, 20 h 37 °C; for MSCpeptide, minimum synergistic concentration: synergist concentration in the combination with erythromycin giving the lowest FICi, OD600
[4] = test system: E. coli EQASmcr-2 (EQAS 2016 KP37); assay type: cell-based, Escherichia coli; settings: for MICpeptide: peptide alone; for MICpeptide / MSCpeptide / MSCrif: E. coli EQASmcr-2; for MSCpeptide: peptide concentration in the combination with rifampicin giving the lowest FICi; for MSCrif: rifampicin concentration in the combination giving the lowest FICi
E. coli BW25113 [5] = assay type: cell-based, Escherichia coli; settings: for FICi: BW25113, 20 h; for MICpep: synergist alone, E. coli BW25113, from checkerboard with rifampicin; for MSCpep: synergist concentration in the combination with rifampicin giving the lowest FICi
E. coli mcr-1 = assay type: cell-based, Escherichia coli; settings: for MICpeptide: peptide alone; for MICpeptide / MSCpeptide / MSCrif: E. coli mcr-1; for MSCpeptide: peptide concentration in the combination with rifampicin giving the lowest FICi; for MSCrif: rifampicin concentration in the combination giving the lowest FICi; for FICi: with rifampicin vs E. coli mcr-1
Procedure, shortened: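 Checkerboard of peptide serial dilutions against rifampicin concentrations in triplicate, in LB with 1.0 × 10^6 CFU/mL final inoculum after mixing the 2.0 × 10^6 CFU/mL stock 1:1, 20 h at 37 °C shaking. OD600 read; FICi = MSCa/MICa + MSCb/MICb, ≤0.5 taken as synergy.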

E. coli W3110 = assay type: cell-based, Escherichia coli; settings: for MICpeptide: peptide alone; for MICpeptide / MSCpeptide / MSCrif: E. coli W3110; for MSCpeptide: peptide concentration in the combination with rifampicin giving the lowest FICi; for MSCrif: rifampicin concentration in the combination giving the lowest FICi
[6] = test system: E. coli EQASmcr-3 (EQAS 2017 2013-SQ352); assay type: cell-based, Escherichia coli; settings: for MICpeptide: peptide alone; for MICpeptide / MSCpeptide / MSCrif: E. coli EQASmcr-3; for MSCpeptide: peptide concentration in the combination with rifampicin giving the lowest FICi; for MSCrif: rifampicin concentration in the combination giving the lowest FICi; for FICi: EQASmcr-3 (EQAS 2017 2013-SQ352, 20 h)
[7] = test system: E. coli EQASmcr-1 (EQAS 2016 412016126); assay type: cell-based, Escherichia coli; settings: for FICi: EQASmcr-1 (EQAS 2016 412016126, 20 h); for MICpeptide: peptide alone; for MICpeptide / MSCpeptide / MSCrif: E. coli EQASmcr-1; for MSCpeptide: peptide concentration in the combination with rifampicin giving the lowest FICi; for MSCrif: rifampicin concentration in the combination giving the lowest FICi
[8] = EQASmcr-2 (EQAS 2016 KP37, 20 h)

Row | Structure (SMILES) | MICpeptide (E. coli BW25113 [1]) [µg/mL] | MSCpeptide (E. coli BW25113 [1]) [µg/mL] | MSCvanco (E. coli BW25113 [1]) [µg/mL] | MICpeptide (K. pneumoniae ATCC13883) [µg/mL] | MSCpeptide (K. pneumoniae ATCC13883) [µg/mL] | MSCrif (K. pneumoniae ATCC13883) [µg/mL] | Hemolysis [2] | MSCery (E. coli BW25113 [3]) [µg/mL] | MIC of the peptide (MICpep) (E. coli BW25113 [3]) [µg/mL] | MSCpeptide, minimum synergistic concentration (E. coli BW25113 [3]) | MICpeptide [4] [µg/mL] | MSCpeptide [4] [µg/mL] | MSCrif [4] [µg/mL] | FICi (E. coli BW25113 [5]) | MICpep (E. coli BW25113 [5]) [µg/mL] | MSCpep (E. coli BW25113 [5]; E. coli BW25113) [µg/mL] | MICpeptide (E. coli mcr-1) [µg/mL] | MSCpeptide (E. coli mcr-1) [µg/mL] | MSCrif (E. coli mcr-1) [µg/mL] | MICpeptide (E. coli W3110) [µg/mL] | other results
1 | CC[C@H](C)[C@H](NC(=O)[C@H](Cc1c[nH]c2ccccc12)NC(=O)[C@H](CCCCN)NC(=O)[C@H](CCCCN)NC(=O)[C@H](CC(C)C)NC(=O)[C@H](CCCNC(=N)N)NC(=O)[C@H](Cc1ccccc1)NC(=O)[C@@H](N)C(C)C)C(=O)N[C@@H](CCC(N)=O)C(=O)N[C@@H](CCCCN)C(=O)N[C@H](C(=O)N[C@@H](C)C(N)=O)C(C)C [peptide 19] (H-VFRLKKWIQKVA-NH2) | 200 | 12.5 | 6.25 | > 200 | 6.25 | 0.25 | 1.0% | 12.5 | 100 | 3.125 µg/mL | 200 | 12.5 | 0.5 | 0.0781 | 100 | 6.25 | > 200 | 25 | 0.75 | 100 | FICi ([4]; with rifampicin vs E. coli EQASmcr-2): 0.1250; FICi (E. coli W3110; W3110, 20 h): 0.0782; MSCpeptide (E. coli W3110): 3.125 µg/mL; MSCrif (E. coli W3110): 0.5 µg/mL; MICpeptide [6]: > 200 µg/mL; MSCpeptide [6]: 6.25 µg/mL; MSCrif [6]: 0.125 µg/mL; FICi [7]: 0.0938; MICpeptide [7]: > 200 µg/mL; MSCpeptide [7]: 12.5 µg/mL; MSCrif [7]: 0.5 µg/mL
2 | CC[C@H](C)[C@H](NC(=O)[C@@H](NC(=O)[C@H](CCCCN)NC(=O)[C@H](CCC(N)=O)NC(=O)[C@@H](NC(=O)[C@H](C)NC(=O)[C@H](CCCCN)NC(=O)[C@H](CCCCN)NC(=O)[C@H](CC(C)C)NC(=O)[C@H](CCCNC(=N)N)NC(=O)[C@H](Cc1ccccc1)NC(=O)[C@@H](N)C(C)C)[C@@H](C)CC)C(C)C)C(N)=O [peptide 14] (H-VFRLKKAIQKVI-NH2) | > 200 | 50 | 50 | > 200 | 6.25 | 0.25 | 0.9% and 1% | 12.5 | > 200 | 6.25 µg/mL | > 200 | 25 | 0.25 | 0.1406 | > 200 | 50 | > 200 | 25 | 0.75 | > 200 | FICi (E. coli BW25113 [1]; BW25113, 20 h): 0.2500; FICi [4, 8]: 0.0938; FICi (E. coli mcr-1): 0.1250; FICi (E. coli W3110; W3110, 20 h): 0.1875; MSCpeptide (E. coli W3110): 50 µg/mL; MSCrif (E. coli W3110): 0.5 µg/mL; FICi [6]: 0.0469; MICpeptide [6]: > 200 µg/mL; MSCpeptide [6]: 12.5 µg/mL; MSCrif [6]: 0.125 µg/mL; FICi [7]: 0.0938; MICpeptide [7]: > 200 µg/mL; MSCpeptide [7]: 12.5 µg/mL; MSCrif [7]: 0.5 µg/mL
3 | CC[C@H](C)[C@H](NC(=O)[C@@H](NC(=O)[C@H](CCCCN)NC(=O)[C@H](CCC(N)=O)NC(=O)[C@@H](NC(=O)[C@H](Cc1c[nH]c2ccccc12)NC(=O)[C@H](CCCCN)NC(=O)[C@H](CCCCN)NC(=O)[C@H](CC(C)C)NC(=O)[C@H](CCCNC(=N)N)NC(=O)[C@H](Cc1ccccc1)NC(=O)[C@@H](N)C(C)C)[C@@H](C)CC)C(C)C)C(N)=O [peptide 6] (H-VFRLKKWIQKVI-NH2) | 25 | 3.125 | 25 | 100 | 3.125 | 1 | 4.0% | 12.5 | 12.5 | 3.125 µg/mL and 3.13 µg/mL | 100 | 6.25 | 0.25 | 0.1563 | 25 | 3.125 | 100 | 12.5 | 0.188 | 6.25 | FICi [4, 8]: 0.0938; MSCrif (E. coli BW25113 [5]; rifampicin concentration in the combination giving the lowest FICi, E. coli BW25113): 0.25 µg/mL; FICi (E. coli mcr-1): 0.1406; MSCpeptide (E. coli W3110): 3.125 µg/mL; MSCrif (E. coli W3110): 0.125 µg/mL; FICi (E. coli W3110; with rifampicin vs E. coli W3110, synergy defined as FICi ≤ 0.5): > 0.5; FICi [6]: 0.0781; MICpeptide [6]: 50 µg/mL; MSCpeptide [6]: 3.125 µg/mL; MSCrif [6]: 0.125 µg/mL; FICi [7]: 0.0781; MICpeptide [7]: 100 µg/mL; MSCpeptide [7]: 6.25 µg/mL; MSCrif [7]: 0.125 µg/mL
